Experimental data taken from paper PMC7525093, “Bis-Quinolinium Cyclophane Blockers of SK Potassium Channels Are Antagonists of M3 Muscarinic Acetylcholine Receptors” (Frontiers in Pharmacology, 2020).
Where two headings read alike, the source gives them in different places.

Columns and labels:
[1] = biological target: T1, human M3 muscarinic acetylcholine receptor (Homo sapiens, UniProt P20309); assay: R-CEPIAer ER calcium assay of Gq-coupled receptor activation, M3-transfected CHO-K1 cells; format: cell-based
T1 construct: host or cells: CHO-K1 cells, stably transfected
Method: (§1) The binding of antagonists to Gq-coupled receptors was determined by measuring IP3-mediated calcium depletion from the endoplasmic reticulum (ER). This was accomplished using CHO-K1 cells stably transfected with human M3 muscarinic acetylcholine receptor (CEM3000000, cDNA Resource Center, Bloomsburg University) and R-CEPIAer, a low affinity ER-targeted calcium indicator fluorescent protein ([Suzuki et al., 2014]). R-CEPIAer reporting of ER calcium concentration was assessed using 564 nm excitation light (>590 long-pass emission) at 20 second intervals on a Nikon swept-field confocal microscope using slit-scan mode, 2x2 Binning, and 100 millisecond frames. F/Fmax was fluorescence intensity normalized to maximal fluorescence intensity during the experiment. The response of cells to Gq-coupled receptor agonist were measured as the change in F/Fmax (ΔF/Fmax) from preagonist value to fluorescence minimum during agonist application (that occurs by IP3-mediated ER calcium depletion). […] Perfusion of each agonist application was for 2 min, while the antagonist overlapped and preceded the second agonist application by 3 min. […] IC50 was calculated by assaying fractional inhibition using a dose-response of antagonist concentrations (i.e. Figure 1D ). For assays of other receptors such as the M1 and M5 muscarinic receptors, H1 histamine and P2Y1 purinergic receptors, these receptors were transiently co-transfected with the pCMV R-CEPIAer plasmid (a gift from Masamitsu Iino (Addgene plasmid # 58216; http://n2t.net/addgene:58216; RRID : Addgene_58216)) into CHO cells using polyethylenimine [according to previous methods ([Longo et al., 2013])]. IC50 and EC50 values were estimated by fitting the dose-response relationship to a Hill equation.
To obtain a pKB using a Schild analysis ([Arunlakshana and Schild, 1959]), the acetylcholine EC50 was measured in the absence of UCL1684 and EC50′ measured in the presence of increasing concentrations of UCL1684. These values were used to calculate a dose ratio (DR = EC50′/EC50) for each UCL1684 concentration. The log(DR − 1) was plotted vs. log UCL1684 concentrations and fit to a linear equation where the theoretical X-intercept was used to estimate a pKB.

histamine receptor H1 = biological target: T2, histamine receptor H1 (Homo sapiens, UniProt P35367); assay: R-CEPIAer ER calcium assay, CHO cells transfected with H1 receptor; format: cell-based; conditions: data not shown
T2 construct: expressed in transfected cells; host or cells: CHO cells, transiently co-transfected with pCMV R-CEPIAer
Method: as §1, with “For assays of other receptors such as the M1 and M5 muscarinic receptors, H1 histamine and P2Y1 purinergic receptors, these receptors were transiently co-transfected with the pCMV R-CEPIAer plasmid (a gift from Masamitsu Iino (Addgene plasmid # 58216; http://n2t.net/addgene:58216; RRID : Addgene_58216)) into CHO cells using polyethylenimine [according to previous methods ([Longo et al., 2013])]. IC50 and EC50 values were estimated by fitting the dose-response relationship to a Hill equation.” left out

M3 mACHR = biological target: T3, M3 mACHR (Homo sapiens, UniProt P20309); assay: [3H]-NMS competition binding, M3 mACHR-expressing CHO cell membranes; conditions: 0.9 nM [3H]-NMS
T3 construct: expressed in transfected cells; host or cells: membranes of M3 mACHR-expressing CHO cells
Method: Competition binding assays were done with [^3H]-N-methyl-scopolamine ([3H]-NMS, PerkinElmer) essentially as described ([Steinfeld et al., 2010]) with minor modifications. Membrane homogenates were prepared in HEPES assay buffer (20 mM HEPES, 100 mM NaCl, and 10 mM MgCl, pH 7.4) by trituration on ice through a 26-gauge needle followed by centrifugation at 39,000g in Sorval RC-6+ centrifuge. Membranes were resuspended in assay buffer and protein concentration determined by the method of Bradford using bovine serum albumin as a standard ([Bradford, 1976]). Membranes (25 µg) were incubated along with 0.9 nM ^3H- NMS without or with UCL1684 concentrations (10^-11M to 10^-4M in triplicate) for 120 min at 30°C in 96 multiwell GF/C filter plates (MilliporeSigma) coated with 0.3% polyethyleneimine (Sigma). The assay was terminated by rapid filtration using a MilliporeSigma vacuum manifold followed by three washes with ice-cold wash buffer (20mM HEPES, pH 7.4). Filters were removed and placed in 7 ml scintillation vials containing 5 ml scintillation fluid (National Diagnostics) and radioactivity counted using a Beckman LS-6500 ß-counter. Nonspecific binding was defined by 100 µM atropine. […]

SK potassium channels = conditions: ref Campos Rosa et al., 1996; read-out: IC50, block of SK channels; cited from earlier work

T1 sequence (P20309 whole entry): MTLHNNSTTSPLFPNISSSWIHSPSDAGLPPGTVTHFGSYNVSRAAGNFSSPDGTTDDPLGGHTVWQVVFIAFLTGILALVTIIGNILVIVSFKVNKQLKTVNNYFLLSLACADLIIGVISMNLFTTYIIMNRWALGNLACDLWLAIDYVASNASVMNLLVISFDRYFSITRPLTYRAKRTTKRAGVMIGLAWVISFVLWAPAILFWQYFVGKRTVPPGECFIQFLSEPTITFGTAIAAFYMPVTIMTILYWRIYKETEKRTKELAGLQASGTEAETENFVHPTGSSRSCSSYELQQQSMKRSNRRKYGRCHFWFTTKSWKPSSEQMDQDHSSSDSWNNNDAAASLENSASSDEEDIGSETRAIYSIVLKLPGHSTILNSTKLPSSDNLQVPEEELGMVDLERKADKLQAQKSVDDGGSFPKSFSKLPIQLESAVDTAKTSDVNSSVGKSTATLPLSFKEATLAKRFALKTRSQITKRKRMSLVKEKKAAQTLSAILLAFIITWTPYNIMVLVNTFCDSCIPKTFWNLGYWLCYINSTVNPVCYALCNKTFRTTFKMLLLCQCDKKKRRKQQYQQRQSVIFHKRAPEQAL
T3 sequence (P20309 whole entry): as above
T2 sequence (P35367 whole entry): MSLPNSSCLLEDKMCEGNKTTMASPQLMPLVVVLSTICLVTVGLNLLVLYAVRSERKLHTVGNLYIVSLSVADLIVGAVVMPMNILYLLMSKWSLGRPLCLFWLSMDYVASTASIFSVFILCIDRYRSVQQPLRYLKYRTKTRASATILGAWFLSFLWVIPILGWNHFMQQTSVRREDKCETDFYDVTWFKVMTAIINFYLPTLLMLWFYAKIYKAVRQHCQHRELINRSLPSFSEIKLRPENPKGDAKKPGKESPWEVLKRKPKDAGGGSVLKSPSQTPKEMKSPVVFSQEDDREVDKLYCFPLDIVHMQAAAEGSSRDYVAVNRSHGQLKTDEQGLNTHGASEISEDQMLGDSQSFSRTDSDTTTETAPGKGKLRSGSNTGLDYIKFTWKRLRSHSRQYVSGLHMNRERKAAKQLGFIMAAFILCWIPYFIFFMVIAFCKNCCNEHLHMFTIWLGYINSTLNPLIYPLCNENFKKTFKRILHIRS

With `c1cc2cc(c1)C[n+]1ccc(c3ccccc31)NCc1ccc(cc1)CNc1cc[n+](c3ccccc13)C2` [UCL 1684, 6,12,19,20,25,26-Hexahydro-5,27:13,18:21,24-trietheno-11,7-metheno-7H-dibenzo [b,n] [1,5,12,16]tetraazacyclotricosine-5,13-diium dibromide] as the molecule, how does the IC50 [1] read?
The IC50 was 1500 nM.

And the “Nature of antagonism at M3 receptors” value [1]?
Its value is “competitive antagonist”.

What about the “Hill slope of inhibition curve, M3 receptor” value ([1]; 0.5 μM carbachol, Hill equation fit) of the same molecule?
Its value is 1.8 ± 0.29.

What about the “Fractional inhibition of second carbachol response” value ([1]; 5 μM antagonist, 0.5 μM carbachol, 0 = none, 1 = complete inhibition) of the same molecule?
Its value is 0.99.

What about the Schild plot slope ([1]; linear regression of log(DR-1) vs log UCL1684) of the same molecule?
The Schild plot slope was 0.94.

What about the Kb ([1]; read-out: Ki / KB from Schild analysis) of the same molecule?
Its Kb is 155 nM.

And the “Fractional inhibition of H1 receptor response” value (histamine receptor H1)?
Its value is -0.008 ± 0.04.

And the Ki (M3 mACHR; n=3 separate experiments, read-out: Average Ki, competition binding)?
Its Ki is 909 nM.

What about the Ki (M3 mACHR; single experiment shown, read-out: pKi, representative binding experiment (converted)) of the same molecule?
The Ki was 1120 nM.

And the IC50 (SK potassium channels)?
The IC50 was 3 nM.
